For one test, the system named is RIVA CRBN^WT cells. The test can be described thus: Cell proliferation in CRBN^WT (CAS9 control) cells, 5 days. The class given is cell-based. Conditions: 120 h. The source says:
(§1) The activated B-cell (ABC) and MYC/BCL2 double expressor cell lines SU-DHL-2 and RIVA, the germinal center B-cell (GCB) and MYC/BCL2 double hit cell lines (and expressing BCL6) Karpas-422, SU-DHL-10, WSU-DLCL2, and the primary mediastinal B-cell lymphoma (PMBL) cell line Farage were infected with a CAS9 expressing lentivirus construct to generate the control CAS9 expressing cells. The Cas9 cells had wild type cereblon expression (CRBN^WT).
(§2) To generate the cereblon knock out cells (CRBN^−/−), the individual control CAS9 cells were infected with a construct expressing a subgenomic single guide RNA (sgRNA). Western blot analysis confirmed the absence of cereblon protein in the CRBN^−/− cells, relative to the levels of the housekeeping protein β-tubulin. The CRBN^WT and CRBN^−/− cells were treated with increasing concentrations of Compound 1 for five days.

Another test concerns Farage CRBN^WT cells. Described as above. The class given is cell-based. Conditions: 120 h.
From the text: as §1, §2

For the next test, the system named is SU-DHL2 CRBN^WT cells. The description is as above. It counts as cell-based. Conditions: Homo sapiens, SU-DHL-2, 120 h.
From the text: as §1, §2

Another test relates to WSU-DLCL2 CRBN^WT cells. Described as above. It counts as cell-based. Conditions: Homo sapiens, WSUDLCL2, 120 h.
From the text: as §1, §2

Another test relates to SU-DHL10 CRBN^WT cells. The description is as above. It counts as cell-based. Conditions: Homo sapiens, 120 h.
From the text: as §1, §2

The subject of the next test is Karpas-422 CRBN^WT cells. Described as above. It counts as cell-based. Conditions: Homo sapiens, 120 h.
From the text: as §1, §2

The test system of another test is SU-DHL-2^CRBNWT cells. The test can be described thus: Western blot time- and concentration-response of endogenous substrates. The class given is cell-based. Conditions: 10 and 100 nM, entire course of treatment. From the text: However, Compound 1 had no activity in SU-DHL-2^CRBN−/− cells, indicating the requirement of cereblon for induction of apoptosis by Compound 1 in DLBCL (FIG. 5 C).

The next test has as its target Ikaros (Homo sapiens, UniProt Q13422+Q96SW2). The test can be described thus: Ikaros protein level by flow cytometry during ex vivo myeloid differentiation. It counts as cell-based. The source says: Ikaros protein levels were monitored during periods of Compound 1 exposure and recovery. Ikaros levels were reduced during Compound 1 exposure and recovered following drug withdrawal in a concentration-dependent manner with no significant differences noted in association with different exposure schedules (FIG. 21; FIG. 22). Ikaros levels began returning to normal after at least 3 days following washout, predating full recovery of maturation of late-stage neutrophil precursors (FIG. 23). […] Accordingly, Ikaros levels in neutrophils can serve as a marker for response to Compound 1.
Ikaros protein level was analyzed by flow cytometry every two or three days. As shown in FIG. 21 and FIG. 22, Ikaros protein was degraded under both Compound 1 treatment schedules (14 days and 5 days) and its expression was restored after drug washout in a concentration dependent manner.
A general note: In flow cytometry, cells or beads pass a laser one at a time.

The test system of test [1] is PBMCs from four healthy donors. The test can be described thus: Cytokine secretion by anti-CD3 stimulated PBMCs (MSD). The class given is cell-based. As to the method: Purified PBMCs from four healthy donors were plated on anti-CD3 antibody-coated plates to stimulate T cells and were subsequently treated with either DMSO (control) or Compound 1 at various concentrations for 3, 4, and 7 days. Secretion of cytokines was measured in supernatant fluid from PBMC cultures over time by using mesoscale (MSD) assays. Compound 1 induced IL-2 secretion at all concentrations tested.

For test [2], the system named is CRBN^WT and CRBN^−/− DLBCL cells. The test can be described thus: Proliferation of CRBN^WT and CRBN^−/− DLBCL cells (six lines). The class given is cell-based.
From the text: as §1, §2

For another test, the system named is LPS system. The test can be described thus: BioMAP LPS system (PBMCs and endothelial cells). The class given is cell-based, human. Conditions: 0.01, 0.1, 1, and 10 μM. Here is the method:
The activity of Compound 1 was profiled in a panel of human primary cell-based assays, modeling complex tissue and disease biology of organs (vasculature, immune system, skin, lung) and general tissue biology using the BioMAP System (DiscoveRx, Fremont, Calif.).
The BioMAP System consists of twelve primary human monoculture or co-culture systems in stimulated and non-stimulated control conditions (FIG. 4, panel A). When tested at 0.01, 0.1, 1, and 10 μM, Compound 1 mediated changes in key biomarker activities. Specifically, the profiles for Compound 1 reflected selective anti-inflammatory and immunomodulatory impact on monocyte (LPS) and T cell dependent B cell activation responses (BT). Treatment with Compound 1 led to a decrease in interleukin 8 (IL-8), interleukin 1a (IL-1a), secreted prostaglandin E2 (sPGE2), and secreted tumor necrosis factor alpha (sTNFα) in the LPS system, which consisted of peripheral blood mononuclear cells (PBMCs) and endothelial cells. Furthermore, secreted IgG (sIgG), secreted interleukin 17A (sIL-17A), secreted interleukin 17F (sIL-17F), and sTNFα decreased, whereas secreted interleukin 2 (sIL-2) and secreted interleukin 6 (sIL-6) increased, in the BT system, which was comprised of B cells and PBMCs.

The test system of test [3] is KARPAS-422, RIVA, HT, and SU-DHL-4 cell lines. The test can be described thus: Dose response in cells expressing degradation-resistant mutants of Ikaros, Aiolos, ZFP91. Conditions: KARPAS-422 and SU-DHL-4. The class given is cell-based. The source says: To test whether Ikaros and Aiolos were redundant in promoting the survival and proliferation of DLBCL lines, degradation-resistant mutants of Ikaros (IKZF1-G151A), Aiolos (IKZF3-G152A), and ZFP91 (ZFP91-G405A), along with NanoLuc luciferase (Nluc) as a control, were ectopically and stably expressed in four DLBCL cell lines: KARPAS-422, RIVA, HT, and SU-DHL-4. Dose response curves with Compound 1 indicate that expression of degradation-resistant mutants of Ikaros or Aiolos provided protection from Compound 1 in all four cell lines (FIG. 11). Additionally, the ectopic expression of the degradation-resistant mutants, as well as their protection against Compound 1-induced degradation, was confirmed by immunoblot analysis. […] Beta-actin levels were used as a control. […] However, there were varying degrees of protection observed in the four cell lines.

Experimental findings from patent publication US20210116454A1, “METHODS FOR TREATING A HEMATOLOGICAL CANCER AND THE USE OF COMPANION BIOMARKERS FOR 2-(2,6-DIOXOPIPERIDIN-3-YL)-4-((2-FLUORO-4-((3-MORPHOLINOAZETIDIN-1-YL)METHYL)BENZYL)AMINO)ISOINDOLINE-1,3-DIONE” (CELGENE CORPORATION, priority 2019, published 2021) are described below.

Sequence of Ikaros (Q13422 whole entry): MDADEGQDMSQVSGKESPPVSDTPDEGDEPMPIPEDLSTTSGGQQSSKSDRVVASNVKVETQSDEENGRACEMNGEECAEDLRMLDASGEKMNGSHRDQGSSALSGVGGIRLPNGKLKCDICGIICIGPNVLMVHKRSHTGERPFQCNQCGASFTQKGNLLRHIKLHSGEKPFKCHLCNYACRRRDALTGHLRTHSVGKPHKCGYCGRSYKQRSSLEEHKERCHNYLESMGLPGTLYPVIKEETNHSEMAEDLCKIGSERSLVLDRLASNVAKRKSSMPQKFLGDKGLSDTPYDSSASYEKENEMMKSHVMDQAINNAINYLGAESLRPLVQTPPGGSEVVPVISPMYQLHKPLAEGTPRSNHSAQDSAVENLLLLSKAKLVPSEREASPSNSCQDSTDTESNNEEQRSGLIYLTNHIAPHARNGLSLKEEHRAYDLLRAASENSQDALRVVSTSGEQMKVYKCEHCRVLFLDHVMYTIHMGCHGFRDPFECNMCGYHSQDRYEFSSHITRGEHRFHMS
Sequence of Ikaros (Q96SW2 whole entry): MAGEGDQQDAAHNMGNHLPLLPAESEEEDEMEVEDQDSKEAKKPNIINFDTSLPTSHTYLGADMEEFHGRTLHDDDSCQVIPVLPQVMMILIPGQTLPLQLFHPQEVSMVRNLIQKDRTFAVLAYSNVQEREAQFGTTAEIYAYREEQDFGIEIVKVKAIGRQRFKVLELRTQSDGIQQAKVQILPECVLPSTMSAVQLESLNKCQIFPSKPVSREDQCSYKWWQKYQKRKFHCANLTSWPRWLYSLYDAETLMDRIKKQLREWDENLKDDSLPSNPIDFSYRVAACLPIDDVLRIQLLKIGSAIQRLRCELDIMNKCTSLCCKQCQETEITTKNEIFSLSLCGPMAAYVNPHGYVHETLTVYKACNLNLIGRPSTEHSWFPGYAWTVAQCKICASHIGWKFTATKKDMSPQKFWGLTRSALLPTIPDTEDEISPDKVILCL
Sequence of Ikaros (Q16531 whole entry partner): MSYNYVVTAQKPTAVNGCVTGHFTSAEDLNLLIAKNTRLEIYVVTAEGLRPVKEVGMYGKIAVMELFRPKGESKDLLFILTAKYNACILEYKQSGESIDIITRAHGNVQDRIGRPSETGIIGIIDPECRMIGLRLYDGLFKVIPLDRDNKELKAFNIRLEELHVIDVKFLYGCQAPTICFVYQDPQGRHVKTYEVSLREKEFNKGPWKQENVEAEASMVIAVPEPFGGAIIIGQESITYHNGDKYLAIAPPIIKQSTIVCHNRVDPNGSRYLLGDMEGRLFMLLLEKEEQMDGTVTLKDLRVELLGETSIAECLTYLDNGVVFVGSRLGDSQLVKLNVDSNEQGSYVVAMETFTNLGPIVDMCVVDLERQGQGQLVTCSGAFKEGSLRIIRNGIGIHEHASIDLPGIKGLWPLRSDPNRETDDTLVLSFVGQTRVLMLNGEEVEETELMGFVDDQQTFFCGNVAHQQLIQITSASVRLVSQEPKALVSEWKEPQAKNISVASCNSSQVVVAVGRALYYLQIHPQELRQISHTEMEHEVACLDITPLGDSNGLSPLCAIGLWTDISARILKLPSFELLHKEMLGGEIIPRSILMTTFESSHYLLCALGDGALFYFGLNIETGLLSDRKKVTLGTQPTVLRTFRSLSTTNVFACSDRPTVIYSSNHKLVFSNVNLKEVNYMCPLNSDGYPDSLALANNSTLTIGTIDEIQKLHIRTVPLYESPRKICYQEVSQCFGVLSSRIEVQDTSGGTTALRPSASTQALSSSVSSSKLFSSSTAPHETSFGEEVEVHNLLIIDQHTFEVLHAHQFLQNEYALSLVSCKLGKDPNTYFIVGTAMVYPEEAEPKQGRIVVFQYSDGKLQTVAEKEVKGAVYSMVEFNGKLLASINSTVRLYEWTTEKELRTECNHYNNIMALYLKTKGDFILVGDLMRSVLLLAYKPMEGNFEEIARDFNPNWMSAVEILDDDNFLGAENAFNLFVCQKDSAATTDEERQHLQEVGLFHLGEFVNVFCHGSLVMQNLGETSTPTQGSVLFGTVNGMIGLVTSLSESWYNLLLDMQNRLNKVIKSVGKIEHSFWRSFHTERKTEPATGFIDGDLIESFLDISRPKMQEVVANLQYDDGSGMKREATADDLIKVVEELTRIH

With `O=C1CC[C@H](N2C(=O)c3cccc(NCc4ccc(CN5CC(N6CCOCC6)C5)cc4F)c3C2=O)C(=O)N1` [Compound 1, (S)-2-(2,6-dioxopiperidin-3-yl)-4-((2-fluoro-4-((3-morpholinoazetidin-1-yl)methyl)benzyl)amino)isoindoline-1,3-dione], the Emax in the test with RIVA CRBN^WT cells is 30%; with Farage CRBN^WT cells, 0.5%; in the test with SU-DHL2 CRBN^WT cells, 1%; in the test with WSU-DLCL2 CRBN^WT cells, 19%; in the test with SU-DHL10 CRBN^WT cells, 0%; in the test with Karpas-422 CRBN^WT cells it was 5%. Besides, the half-inhibitory concentration (IC50) in the test on RIVA CRBN^WT cells was found to be 8 nM; in the test on Farage CRBN^WT cells it was 8 nM; in the test on SU-DHL2 CRBN^WT cells, 2.5 nM; with WSU-DLCL2 CRBN^WT cells, 40 nM; with SU-DHL10 CRBN^WT cells it was 35 nM; with Karpas-422 CRBN^WT cells, 15 nM. The IC50 in test [2] (120 h, six DLBCL lines, five days, read-out: IC50 in control CAS9 expressing cells (CRBN^WT)) was in the range of 2.5 to 40 nM. Moreover, the “Ikaros, Aiolos, and ZFP91 protein expression” value in the test with SU-DHL-2^CRBNWT cells was “complete suppression”. The “recovery of Ikaros protein” value on Ikaros (Day 19, all concentrations, after 14 days of treatment) is listed as “complete recovery”. The “time after washout at which Ikaros levels began returning to normal” value on Ikaros (neutrophil precursors, following washout) was “at least 3 days”. Besides, the “Interleukin-2 secretion by PBMCs” value in [1] (0.1 to 100 nM, 3, 4, and 7 days) is listed as “increased”. In addition, the “other monitored cytokines (TNFα, IFNγ, IL-4, IL-13, IL-10, and IL-6)” value in [1] (3, 4, and 7 days) is listed as “Transient or no effect”. For the same compound, the “effect of CRBN knock-out on antiproliferative activity” value in [2] (CRBN^−/− cells) is on record as “blocked the antiproliferative activity”. Further, the “IL-8, IL-1a, sPGE2, and sTNFα” value in the test with LPS system is given as “decrease”. For the same compound, the “protection by degradation-resistant mutants of Ikaros or Aiolos” value in [3] was “nearly complete protection”.

A word on the IC50: it is the concentration that inhibits the measured activity by half.
